# Test results reported in US10294202B2, “Pyrrolidinones as herbicides” (FMC Corporation, priority 2013, dated 2019).
# What was measured:
# ducksalad [1] = experiment: Test B flooded paddy test; assay type: in vivo, Heteranthera limosa; settings: 250 g ai/ha, Flood; scale of 0 to 100 where 0 is no effect and 100 is complete control
# Procedure, shortened: (§1)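 Plants were grown to the 2-leaf stage, then pots were flooded to 3 cm above the soil and compound was applied directly into the paddy water, with that depth held throughout. After 13 to 15 days in a greenhouse, injury was rated visually against untreated controls on a 0 to 100 scale (100 = complete control).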
# sedge, umbrella [2] = experiment: Test B flooded paddy test; assay type: in vivo, Cyperus difformis; settings: 250 g ai/ha, Flood; scale of 0 to 100 where 0 is no effect and 100 is complete control
# Procedure, shortened: as §1
# ducksalad [3] = experiment: Test C flooded paddy test; assay type: in vivo, Heteranthera limosa; settings: Flood
# Procedure, shortened: (§2)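 2-leaf stage; flood 3 cm over soil; compound into paddy water; depth held; greenhouse 13–15 d; visual % control vs untreated (0 = none, 100 = complete); "-" = not tested.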
# barnyardgrass [4] = experiment: Test B flooded paddy test; assay type: in vivo, Echinochloa crus-galli; settings: 250 g ai/ha, Flood; scale of 0 to 100 where 0 is no effect and 100 is complete control
# Procedure, shortened: as §1
# giant foxtail = experiment: Test A pre-/postemergence herbicide test; assay type: in vivo, Setaria faberii
# Procedure, shortened: (§3)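 Seeds in loam–sand blend received preemergence directed soil spray; separately, plants 2–10 cm at one- to two-leaf stage received postemergence spray, both with test chemicals in non-phytotoxic solvent with surfactant. After ~10 days in greenhouse, injury rated visually against untreated controls, 0 (no effect) to 100 (complete control).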
# corn = experiment: Test A pre-/postemergence herbicide test; assay type: in vivo, Zea mays
# Procedure, shortened: as §3
# pigweed = experiment: Test A pre-/postemergence herbicide test; assay type: in vivo, Amaranthus retroflexus
# Procedure, shortened: as §3
# velvetleaf = experiment: Test A pre-/postemergence herbicide test; assay type: in vivo, Abutilon theophrasti
# Procedure, shortened: as §3
# rice [5] = experiment: Test C flooded paddy test; assay type: in vivo, Oryza sativa; settings: Flood
# Procedure, shortened: as §2
# barnyardgrass [6] = experiment: Test A pre-/postemergence herbicide test; assay type: in vivo, Echinochloa crus-galli
# Procedure, shortened: as §3
# crabgrass, large = experiment: Test A pre-/postemergence herbicide test; assay type: in vivo, Digitaria sanguinalis
# Procedure, shortened: as §3
# sedge, umbrella [7] = experiment: Test C flooded paddy test; assay type: in vivo, Cyperus difformis; settings: Flood
# Procedure, shortened: as §2
# morningglory = experiment: Test A pre-/postemergence herbicide test; assay type: in vivo, Ipomoea spp.
# Procedure, shortened: as §3
# rice [8] = experiment: Test B flooded paddy test; assay type: in vivo, Oryza sativa; settings: 250 g ai/ha, Flood; scale of 0 to 100 where 0 is no effect and 100 is complete control
# Procedure, shortened: as §1
# wheat = experiment: Test A pre-/postemergence herbicide test; assay type: in vivo, Triticum aestivum
# Procedure, shortened: as §3
# barnyardgrass [9] = experiment: Test C flooded paddy test; assay type: in vivo, Echinochloa crus-galli; settings: Flood
# Procedure, shortened: as §2
# [10] = 125 g ai/ha, scale of 0 to 100 where 0 is no effect and 100 is complete control, 13 to 15 days
# [11] = Postemergence, 125 g ai/ha, 0 to 100 scale, 0 no effect, 100 complete control
# [12] = Postemergence, 500 g ai/ha, 0 to 100 scale (0 no effect, 100 complete control)
# [13] = Preemergence, 125 g ai/ha, visual rating on 0 to 100 scale (0 no effect, 100 complete control)
# [14] = preemergence, 500 g ai/ha, 0 to 100 scale
compound,measurement,setting,value
O=C1NCC(c2cccc(Cl)c2)C1C(=O)Nc1ccccc1F (racemic) [Compound 89],"Plant response rating, Ducksalad",ducksalad [1],70
same,"Plant response rating, Sedge, Umbrella","sedge, umbrella [2]",0
same,"Plant response rating, Ducksalad",ducksalad [3]; [10],70
same,"Plant response rating, Ducksalad","ducksalad [3]; 250 g ai/ha, scale 0 to 100",85
same,"Plant response rating, Ducksalad","ducksalad [3]; 500 g ai/ha, scale 0 to 100",100
same,"Plant response rating, Ducksalad","ducksalad [3]; 1000 g ai/ha, scale 0 to 100",100
same,"Plant response rating, Barnyardgrass",barnyardgrass [4],60
same,"Plant response rating, Foxtail, Giant",giant foxtail; [11],60
same,"Plant response rating, Foxtail, Giant",giant foxtail; [12],80
same,"Foxtail, Giant plant response rating",giant foxtail; [13],80
same,"Plant response rating, Foxtail, Giant",giant foxtail; [14],90
same,"Plant response rating, Corn",corn; [11],0
same,"Plant response rating, Corn",corn; [12],30
same,Corn plant response rating,corn; [13],0
same,"Plant response rating, Corn",corn; [14],0
same,"Plant response rating, Pigweed",pigweed; [11],0
same,"Plant response rating, Pigweed",pigweed; [12],20
same,Pigweed plant response rating,pigweed; [13],0
same,"Plant response rating, Pigweed",pigweed; [14],0
same,"Plant response rating, Velvetleaf",velvetleaf; [11],0
same,"Plant response rating, Velvetleaf",velvetleaf; [12],0
same,Velvetleaf plant response rating,velvetleaf; [13],0
same,"Plant response rating, Velvetleaf",velvetleaf; [14],0
same,"Plant response rating, Rice",rice [5]; [10],0
same,"Plant response rating, Rice","rice [5]; 250 g ai/ha, scale 0 to 100",0
same,"Plant response rating, Rice","rice [5]; 500 g ai/ha, scale 0 to 100",0
same,"Plant response rating, Rice","rice [5]; 1000 g ai/ha, scale 0 to 100",0
same,"Plant response rating, Barnyardgrass",barnyardgrass [6]; [11],60
same,"Plant response rating, Barnyardgrass",barnyardgrass [6]; [12],80
same,Barnyardgrass plant response rating,barnyardgrass [6]; [13],60
same,"Plant response rating, Barnyardgrass","barnyardgrass [6]; preemergence, 500 g ai/ha, 0 to 100 scale (0 no effect, 100 complete control)",80
same,"Plant response rating, Crabgrass, Large","crabgrass, large; [11]",60
same,"Plant response rating, Crabgrass, Large","crabgrass, large; [12]",80
same,"Crabgrass, Large plant response rating","crabgrass, large; [13]",80
same,"Plant response rating, Crabgrass, Large","crabgrass, large; [14]",90
same,"Plant response rating, Sedge, Umbrella","sedge, umbrella [7]; [10]",0
same,"Plant response rating, Sedge, Umbrella","sedge, umbrella [7]; 250 g ai/ha, scale 0 to 100",0
same,"Plant response rating, Sedge, Umbrella","sedge, umbrella [7]; 500 g ai/ha, scale 0 to 100",0
same,"Plant response rating, Sedge, Umbrella","sedge, umbrella [7]; 1000 g ai/ha, scale 0 to 100",0
same,"Plant response rating, Morningglory",morningglory; [11],0
same,"Plant response rating, Morningglory",morningglory; [12],10
same,Morningglory plant response rating,morningglory; [13],0
same,"Plant response rating, Morningglory",morningglory; [14],0
same,"Plant response rating, Rice",rice [8],20
same,"Plant response rating, Wheat",wheat; [11],0
same,"Plant response rating, Wheat",wheat; [12],20
same,Wheat plant response rating,wheat; [13],0
same,"Plant response rating, Wheat",wheat; [14],10
same,"Plant response rating, Barnyardgrass",barnyardgrass [9]; [10],20
same,"Plant response rating, Barnyardgrass","barnyardgrass [9]; 250 g ai/ha, scale 0 to 100",20
same,"Plant response rating, Barnyardgrass","barnyardgrass [9]; 500 g ai/ha, scale 0 to 100",40
same,"Plant response rating, Barnyardgrass","barnyardgrass [9]; 1000 g ai/ha, scale 0 to 100",75
